This note sets out measurements from PubChem BioAssay AID200 (DTP/NCI, 2004).

Where “and” joins values, the source holds several entries; their conditions need not be identical. Identical values can stand only once. Inconclusive results and toxic doses are left out. Where a SMILES comes first, the peptide text is derived from it. [ ]: non-standard residue; d: D form. The star is where a group is joined. Cbz = O=C(OCc1ccccc1)*; Nva = CCC[CH](N)C(=O)O

The assay relates to B6C3F1 mice, B16 melanoma ip, median survival T/C. In words: NCI In Vivo Anticancer Drug Screen. Data for tumor model B16 Melanoma (intraperitoneal) in B6C3F1 mice. To be noted: endpoint: median survival time, higher = longer survival. The procedure, abridged:
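Transplantable tumor in mice; treated vs vehicle control groups; survival or tumor size measured; value = T/C ratio.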

[1] abbreviates: dose: 50.0 mg/kg/injection, schedule: Q01DX009 (ip), vehicle: saline.
Setting [2] is: dose: 100.0 mg/kg/injection, schedule: Q01DX009 (ip), vehicle: saline.
Setting [3] is: dose: 200.0 mg/kg/injection, schedule: Q01DX009 (ip), vehicle: saline.
[4] abbreviates: dose: 400.0 mg/kg/injection, schedule: Q01DX009 (ip), vehicle: saline.
[5] abbreviates: dose: 6.25 mg/kg/injection, schedule: Q01DX009 (ip), vehicle: saline with Tween-80.
[6] abbreviates: dose: 12.5 mg/kg/injection, schedule: Q01DX009 (ip), vehicle: saline with Tween-80.
The mark [7] stands for this setting: dose: 25.0 mg/kg/injection, schedule: Q01DX009 (ip), vehicle: saline with Tween-80.
Where [8] appears, read: dose: 50.0 mg/kg/injection, schedule: Q01DX009 (ip), vehicle: saline with Tween-80.
The mark [9] stands for this setting: dose: 6.25 mg/kg/injection, schedule: Q01DX009 (ip), vehicle: saline.
[10] abbreviates: dose: 12.5 mg/kg/injection, schedule: Q01DX009 (ip), vehicle: saline.
[11] abbreviates: dose: 25.0 mg/kg/injection, schedule: Q01DX009 (ip), vehicle: saline.
Where [12] appears, read: dose: 100.0 mg/kg/injection, schedule: Q01DX009 (ip), vehicle: Klucel (hydroxypropylcellulose) (HPC).
The mark [13] stands for this setting: dose: 200.0 mg/kg/injection, schedule: Q01DX009 (ip), vehicle: Klucel (hydroxypropylcellulose) (HPC).
The mark [14] stands for this setting: dose: 400.0 mg/kg/injection, schedule: Q01DX009 (ip), vehicle: Klucel (hydroxypropylcellulose) (HPC).
Setting [15] is: dose: 100.0 mg/kg/injection, schedule: Q01DX009 (ip), vehicle: saline with Tween-80.
Setting [16] is: dose: 12.5 mg/kg/injection, schedule: Q01DX009 (ip), vehicle: Klucel (hydroxypropylcellulose) (HPC).
The mark [17] stands for this setting: dose: 25.0 mg/kg/injection, schedule: Q01DX009 (ip), vehicle: Klucel (hydroxypropylcellulose) (HPC).
The mark [18] stands for this setting: dose: 50.0 mg/kg/injection, schedule: Q01DX009 (ip), vehicle: Klucel (hydroxypropylcellulose) (HPC).
The mark [19] stands for this setting: dose: 6.25 mg/kg/injection, schedule: Q01DX009 (ip), vehicle: Klucel (hydroxypropylcellulose) (HPC).

`CCCCCn1c(C)cc(/C=C\c2ccc3cc(C)ccc3[n+]2C)c1C`: the T/C by setting is: (dose: 39.0 micrograms/kg/injection, schedule: Q01DX009 (ip), vehicle: Klucel (hydroxypropylcellulose) (HPC)) 93 % of control; (dose: 78.0 micrograms/kg/injection, schedule: Q01DX009 (ip), vehicle: Klucel (hydroxypropylcellulose) (HPC)) 95 % of control; (dose: 156.0 micrograms/kg/injection, schedule: Q01DX009 (ip), vehicle: Klucel (hydroxypropylcellulose) (HPC)) 100 % of control; (dose: 312.0 micrograms/kg/injection, schedule: Q01DX009 (ip), vehicle: Klucel (hydroxypropylcellulose) (HPC)) 100 % of control; (dose: 625.0 micrograms/kg/injection, schedule: Q01DX009 (ip), vehicle: Klucel (hydroxypropylcellulose) (HPC)) 96 % of control.
For the compound `CC(=O)O[C@H]1C(=O)[C@@]2(C)C(C(OC(=O)c3ccccc3)[C@]3(O)C[C@H](OC(=O)C(OC(=O)CCCC(=O)NCCCN(C)C)C(NC(=O)c4ccccc4)c4ccccc4)C(C)=C1C3(C)C)C1(OC(C)=O)COC1C[C@@H]2O` (some centres not stated), the T/C runs as follows: (dose: 10.0 mg/kg/injection, schedule: Q01DX009 (ip), vehicle: water) 191 % of control; (dose: 20.0 mg/kg/injection, schedule: Q01DX009 (ip), vehicle: water) 229 % of control; (dose: 40.0 mg/kg/injection, schedule: Q01DX009 (ip), vehicle: water) 289 % of control.
Regarding `O=C1CCC2=C3C4CCCC5OC6CC(=O)CCC6=C(C6CCCC(OC2C1)C36)C54` (configuration not stated), the T/C was 102 % of control under setting [1], 102 % of control under setting [2], 97 % of control under setting [3] and 96 % of control under setting [4].
As for `COC1=C(OC)C(=O)C(Sc2ccc3ccccc3c2)=CC1=O`, the T/C was 86 % of control and 97 % of control under setting [5]; 95 % of control under setting [6]; 96 % of control under setting [7]; 86 % of control under setting [8].
With `C[N+](C)=C1C=CC(=C2C=CSC=C2)C=C1`, the T/C runs as follows: (dose: 3.0 mg/kg/injection, schedule: Q01DX009 (ip), vehicle: saline) 115 % of control; under setting [9], 116 % of control.
With `O=C(Nc1ccc(C2=NCCN2)cc1)c1ccc(C(=O)Nc2ccc(C3=NCCN3)cc2)c(Cl)c1`, the T/C reads like this: (dose: 1.56 mg/kg/injection, schedule: Q01DX009 (ip), vehicle: saline with Tween-80) 105 % of control; (dose: 1.56 mg/kg/injection, schedule: Q01DX009 (ip), vehicle: saline) 115 % of control; (dose: 3.12 mg/kg/injection, schedule: Q01DX009 (ip), vehicle: saline with Tween-80) 98 % of control; (dose: 3.12 mg/kg/injection, schedule: Q01DX009 (ip), vehicle: saline) 89 % of control; under setting [5], 100 % of control; under setting [9], 100 % of control. Also, the T/C runs as follows: under setting [6], 93 % of control; under setting [10], 93 % of control; under setting [7], 110 % of control; under setting [11], 94 % of control; under setting [8], 110 % of control; under setting [1], 99 % of control.
For `CC(C)(C)OC(=O)NC(Cc1c[nH]c2ccccc12)C(=O)ON1C(=O)CCC1=O` (configuration not stated), the T/C under setting [6] was 89 % of control, the T/C under setting [7] is 100 % of control and the T/C under setting [8] was 88 % of control.
In the case of `CCCC(NC(=O)OCc1ccccc1)C(=O)NC(C(=O)O)C(C)C` (configuration not stated) (Cbz-[Nva]-Val-OH; configuration not given here), the T/C under setting [12] is 102 % of control, the T/C under setting [13] was 109 % of control and the T/C under setting [14] is 99 % of control.
With `Cc1ccc(N=NN(C)C)cc1`, the T/C is, setting by setting: under setting [7], 100 % of control; under setting [8], 110 % of control; under setting [15], 107 % of control.
Regarding `Nc1nc(/C=C(/O)c2ccccc2)c2ncn(C3OC(CO)C(O)C3O)c2n1` (configuration not stated), the T/C reads like this: (dose: 12.5 mg/kg/injection, schedule: Q01DX009 (ip), vehicle: distilled water + Tween-80) 103 % of control; under setting [10], 102 % of control; (dose: 25.0 mg/kg/injection, schedule: Q01DX009 (ip), vehicle: distilled water + Tween-80) 101 % of control; under setting [11], 101 % of control; (dose: 50.0 mg/kg/injection, schedule: Q01DX009 (ip), vehicle: distilled water + Tween-80) 95 % of control; under setting [1], 111 % of control. Besides, the T/C runs as follows: (dose: 100.0 mg/kg/injection, schedule: Q01DX009 (ip), vehicle: distilled water + Tween-80) 101 % of control; under setting [2], 101 % of control; under setting [3], 103 % of control.
`CC(C)OC(=O)c1ccc(C(C)C)cc1`: the T/C by setting is: (dose: 3.13 mg/kg/injection, schedule: Q01DX009 (ip), vehicle: saline with Tween-80) 94 % of control; under setting [5], 96 % of control; under setting [6], 96 % of control and 101 % of control; under setting [8], 90 % of control.
Take `CC(O)CCC(=O)c1ccoc1` (configuration not stated): the T/C reads like this: (dose: 0.62 mg/kg/injection, schedule: Q03HX027 (ip), vehicle: saline) 97 % of control; (dose: 1.25 mg/kg/injection, schedule: Q03HX027 (ip), vehicle: saline) 113 % of control; (dose: 2.5 mg/kg/injection, schedule: Q03HX027 (ip), vehicle: saline) 105 % of control; (dose: 5.0 mg/kg/injection, schedule: Q01DX009 (ip), vehicle: saline) 105 % of control; (dose: 5.0 mg/kg/injection, schedule: Q03HX027 (ip), vehicle: saline) 114 % of control; (dose: 10.0 mg/kg/injection, schedule: Q01DX009 (ip), vehicle: saline) 93 % of control. Also, the T/C runs as follows: (dose: 10.0 mg/kg/injection, schedule: Q03HX027 (ip), vehicle: saline) 105 % of control; (dose: 20.0 mg/kg/injection, schedule: Q01DX009 (ip), vehicle: saline) 98 % of control.
Consider `O=C(NNC(=O)c1cccc(C(=O)NNC(=O)c2ccc(Cl)c(Cl)c2)n1)c1ccc(Cl)c(Cl)c1`, for which the T/C was 94 % of control and 105 % of control under setting [16]; 102 % of control under setting [17]; 91 % of control and 102 % of control under setting [18]; 94 % of control and 103 % of control under setting [12]; 105 % of control under setting [13].
Consider `CSc1ncc2ncn(C3OC(CO)C(O)C3O)c2n1` (configuration not stated), for which the T/C reads like this: under setting [17], 101 % of control and 105 % of control; under setting [18], 95 % of control and 98 % of control; under setting [12], 103 % of control; under setting [13], 106 % of control; under setting [14], 110 % of control and 89 % of control.
With `CC(NC(=O)C1CCCN1C(=O)CN)C(=O)O` (configuration not stated), the T/C reads like this: under setting [2], 105 % of control; under setting [3], 92 % of control; under setting [4], 96 % of control.
For `CSCCC(NC(=O)CNC(=O)OCc1ccccc1)C(=O)O` (configuration not stated), the T/C by setting is: (dose: 3.0 mg/kg/injection, schedule: Q01DX009 (ip), vehicle: Klucel (hydroxypropylcellulose) (HPC)) 101 % of control and 103 % of control; (dose: 6.0 mg/kg/injection, schedule: Q01DX009 (ip), vehicle: Klucel (hydroxypropylcellulose) (HPC)) 95 % of control; under setting [19], 93 % of control; (dose: 12.0 mg/kg/injection, schedule: Q01DX009 (ip), vehicle: Klucel (hydroxypropylcellulose) (HPC)) 101 % of control and 103 % of control; under setting [16], 97 % of control; under setting [17], 93 % of control and 94 % of control. For the same compound, the T/C is, setting by setting: under setting [18], 95 % of control and 99 % of control and 102 % of control; under setting [12], 95 % of control; under setting [13], 101 % of control; under setting [14], 95 % of control.
On to `COC1=C(OC)C(=O)C(SC/C=C(\C)CCCC(C)CCCC(C)CCCC(C)C)=CC1=O` (configuration not stated), for which the T/C under setting [5] was 100 % of control; the T/C under setting [6] is 109 % of control and 94 % of control; the T/C under setting [7] was 101 % of control and 103 % of control; the T/C under setting [8] is 121 % of control and 106 % of control; the T/C under setting [15] was 117 % of control; the T/C (dose: 200.0 mg/kg/injection, schedule: Q01DX009 (ip), vehicle: saline with Tween-80) is 116 % of control.
For the compound `COC(=O)Nc1cn2cc(C(=O)c3cccs3)ccc2n1`, the T/C is 122 % of control under setting [19]; 159 % of control and 175 % of control under setting [17]; 179 % of control (dose: 50.0 mg/kg/injection, schedule: Q01DX009 (ip), vehicle: other).
